Test results published in patent EP0075629A1, “Imidazole derivatives, their preparation, and their pharmaceutical compositions” (Sumitomo Chemical Industries Ltd., priority 1981, dated 1983).

These compounds were tested on Lewis lung carcinoma (solid) (assay: Antitumor effect on mouse experimental tumors (tumor inhibitory ratio by tumor weight)). Settings: Dose 100 mg/kg, route i.p., schedule 5q2d (days 1, 3, 5, 7 and 9); tumors removed and weighed at day 13; BDF1 male mice.
Type: in vivo
Procedure: The antitumor activities of compounds of the present invention were estimated according to the methods described in "Cancer chemotheraphy reports" Part 3, Vol. 3, (No. 2) p.13 (1972).
BDF1 male mice, 5 weeks old, weighing between 18 and 22 grams were used. Each test group was composed of 6 to 7 mice. Two million cells of Lewis lung carcinoma were injected in the hind leg. The drug was administered intraperitoneally at days 1, 3, 5, 7 and 9 (or 5q2d).
After killing the mice at day 13, tumors were removed and weighed. The tumor inhibitory ratio was calculated according to the following formula: [formula]

| Compound | Inhibition Ratio (%) Lewis lung carcinoma (solid) |
| --- | --- |
| COc1ccc(C(=O)Oc2nc[nH]c2C(N)=O)cc1OC [5-Carbamoyl-1H-imidazole-4-yl 3',4'-dimethoxy-benzoate] | 83.1% |
| COc1cc(C(=O)Oc2nc[nH]c2C(N)=O)ccc1C [5-Carbamoyl-1H-imidazole-4-yl 3'-methoxy-4'-methylbenzoate] | 89.4% |
| NC(=O)c1[nH]cnc1OC(=O)C=Cc1cccc([N+](=O)[O-])c1 [5-Carbamoyl-1H-imidazole-4-yl m-nitrocinnamate] | 90% |
| NC(=O)c1[nH]cnc1OC(=O)C=Cc1ccc(Cl)cc1 [5-Carbamoyl-1H-imidazole-4-yl p-chlorocinnamate] | 90% |
| NC(=O)c1[nH]cnc1OC(=O)c1ccc(-c2ccccc2)cc1 [5-Carbamoyl-1H-imidazole-4-yl p-phenylbenzoate] | 77.0% |
